In the NIST ThermoML archive (doi:10.1016/j.fluid.2011.04.017):
± gives the expanded uncertainty stated by the source.

Conditions: 101.33 kPa, Liquid, Vibrating tube method

Compound	mass density (293.15 K) [kg/m3]	mass density (298.15 K) [kg/m3]	mass density (298.1 K) [kg/m3]
CCCCCCCCCn1cc[n+](C)c1.F[P-](F)(F)(F)(F)F [1-nonyl-3-methylimidazolium hexafluorophosphate]	1198.32 ± 0.2	1194.34 ± 0.19	
CCCCn1cc[n+](C)c1.F[P-](F)(F)(F)(F)F [1-butyl-3-methylimidazolium hexafluorophosphate]			1366.38 ± 1.7
